Consider 3 compounds from ChEMBL document CHEMBL4602712, “Synthesis and Evaluation of Noncovalent Naphthalene-Based KEAP1-NRF2 Inhibitors” (ACS Med Chem Lett, 2020).

The term IC50 denotes the concentration that inhibits the measured activity by half.

The assay has as its target Kelch-like ECH-associated protein 1 (Homo sapiens, UniProt Q14145). The experiment in a line: Inhibition of FITC-9mer Nrf2 peptide binding to recombinant human KEAP1 Kelch domain (321 to 609 residues) expressed in Escherichia coli BL21 (DE3) by fluorescence polarization assay.

Sequence of Kelch-like ECH-associated protein 1 (Q14145 whole entry, the tested form may be a part): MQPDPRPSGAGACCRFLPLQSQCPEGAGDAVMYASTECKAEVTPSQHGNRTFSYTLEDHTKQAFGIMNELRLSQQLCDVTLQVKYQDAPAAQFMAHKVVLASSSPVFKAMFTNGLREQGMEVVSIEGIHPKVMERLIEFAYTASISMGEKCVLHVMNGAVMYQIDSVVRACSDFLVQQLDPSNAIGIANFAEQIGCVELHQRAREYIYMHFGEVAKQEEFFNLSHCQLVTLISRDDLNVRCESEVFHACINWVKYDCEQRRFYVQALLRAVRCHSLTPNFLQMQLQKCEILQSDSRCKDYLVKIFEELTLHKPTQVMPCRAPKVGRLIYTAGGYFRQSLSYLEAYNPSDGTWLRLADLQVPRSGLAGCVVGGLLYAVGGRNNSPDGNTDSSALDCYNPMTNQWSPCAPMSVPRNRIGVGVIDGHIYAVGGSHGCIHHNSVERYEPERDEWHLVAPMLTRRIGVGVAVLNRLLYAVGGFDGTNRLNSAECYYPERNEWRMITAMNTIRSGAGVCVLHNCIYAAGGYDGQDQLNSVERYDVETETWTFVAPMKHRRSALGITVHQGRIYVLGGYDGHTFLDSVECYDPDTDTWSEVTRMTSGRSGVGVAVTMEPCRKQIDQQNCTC

On to `COc1ccc(S(=O)(=O)Nc2ccc(CCC(=O)O)c3ccccc23)cc1`, for which the IC50 was greater than 25 µM. The value for `COc1ccc(S(=O)(=O)Cc2ccc(CS(=O)(=O)c3ccc(OC)cc3)c3ccccc23)cc1` was greater than 25 µM; that for `COc1ccc(S(=O)(=O)Nc2ccc(/C=C/C(=O)O)c3ccccc23)cc1` was greater than 25 µM.
